Experimental data as given in PMC8659091, “Preparation, Characterization, and Bioavailability of Host-Guest Inclusion Complex of Ginsenoside Re with Gamma-Cyclodextrin” (Molecules, 2021).
Where two headings read alike, the source gives them in different places.

Legend:
[1] = Dissolution test in water (rotatory-basket method); assay type: physicochemical; conditions: at 30 min, 37 °C, 100 rpm, 20 mg as Re in 200 mL
Procedure: G-Re, G-Re-γ-CD physical mixtures, and the G-Re-γ-CD ICs (20 mg as Re) were inserted into a basket in a automatic dissolution testing system (RC806D, Tianjin Tianda Technology Co.,Ltd, Tianjin, China) containing 200 mL of water according to the dissolution method (Chp. 2020 Vol II Addium XC rotatory-basket method). The speed was set at 100 rpm, and the temperature was 37 ± 0.5 °C. Then an equal amount of solution (1 mL) needed to be taken at timepoints of 5, 15, 30, 45, and 60 min; at the same time, 1 mL solution should be replaced. As described below, the determination of G-Re concentration by 205 nm high-performance liquid chromatography was feasible. The G-Re concentration was detected with the same HPLC method applied in the phase solubility test.
(§1) The contents of G-Re from the dissolution sample and phase solubility sample were determined with the help of HPLC on the C18 column (Ascentis® Express, 10 cm × 2.1 mm, 2.6 μm, Sigma, USA), which was installed an Agilent system. This system consisted of a micro degasser, an auto plate sampler, a system binary pump, as well as a thermostatically controlled column apartment at 30 °C. Samples were separated under elution conditions at A (acetonitrile) and B (water) = 19: 81 (v/v). Then, the flow rate was set at 0.5 mL per minute and the injection volume at 5 μL, while the G-Re was detected spectrophotometrically at 205 nm.

[2] = parameters: method as in PMID 22314249, PMID 25197955, PMID 19729261; conditions: after oral administration; cited from earlier work
[3] = Pharmacokinetic / bioavailability study after single oral administration, plasma LC-MS/MS; assay type: in vivo, Sprague-Dawley rats; conditions: rats, 100 mg/kg, mean ± SD
Procedure: The animal studies carried out in this study strictly followed the instructions of the Animal Care and Use Committee of the Changchun university of Chinese medicine (Approval Number: 20190030). Adult male Sprague-Dawley rats (200-220 g; Yisi Experimental Animal Technology Co., Ltd., Changchun, China Approved number: SCXK (JI) 2018-0007) were used for the pharmacokinetic studies. All rats were not allowed to be fed for 24 h before the oral dosing and likewise after the drug administration. Besides, all of them needed to be brought up under a controlled temperature ranging from 20 to 24 °C with a 12-h light/dark cycle. G-Re powder and G-Re-γ-CD complex were suspended in double-distilled water prior to use at 100 mg/kg. […] The blood samples were centrifuged for 10 min at 4000 rpm to harvest the plasma sample (100 μL). Then, the G-Rf (10 μL, 10 ng/mL) was added into each tube rapidly to work as the inherent criterion. After that, a mixed 0.5 mL methanol-acetonitrile (60:40, v/v) should be added for precipitating proteins and extracting interested compounds. The samples were then rotated for 3 min and centrifuged at 15,000×grams for 10 min. By separating and evaporating, the supernatant was obtained on the condition that the nitrogen flow dried gently at 40 °C. Additionally, the residue was reconstituted by vortexing for 1 min with 0.2 mL methanol-water (80:20, v/v). Furthermore, the supernatant was transferred into auto-sampler vials using 5 μL aliquot to inject to the LC-MS/MS system. This method could be carried out by a combination of a Thermo TSQ Endura triple-quadrupole tandem mass spectrometer (Thermo Fisher Inc., Waltham, USA), which is a method named electrospray ionization (ESI), and an Ultimate 3000 LC system which is composed of a vacuum degasser, a quaternary pump, as well as an auto-sampler. Xcalibur 2.2 (SP1.48) software was used to acquire and analyze the data (Thermo Fisher Inc., Waltham, USA). After that, the separation of chemical materials was conducted by using the reverse-phase Accucore C18 analytical column (100 mm × 2.1 mm, 2.6 μm, Thermo Fisher Inc., Waltham, USA). This column was available for the linear gradient elution by using the mobile phase, which consisted of water embracing 0.1% formic acid (A) and acetonitrile (B). Steps are described as follows: 0 min (A 75%-B 25%)-5.0 min (A 70%-B 30%)-8 min (A 68%-B 32%)-9 min (A 64%-B 36%)-16 min (A 63%-B 37%)-16.8 min (A 52%-B 48%)-17.8 min (A 30%-B 70%)-18.8 min (A 10%-B 90%)-20.8 min (A 75%-B 25%)-25 min (A 75%-B 25%). The flow rate should be 0.2 mL per minute, and the volume of injection needed to be 5 μL. This process needed to be performed using the ESI negative ionization and multiple reactions monitoring (MRM) mode. Furthermore, the parameters of spray voltage were 3 kV, the parameters of capillary temperature was 325 °C, and the pressure of nitrogen sheath gas and auxiliary gas were 30 arb and 10 arb. The formic acid adduct [M+HCOO]- is the dominant parent ion of products. […] Finally, the ion transition situations for multiple reactions monitoring (MRM) were m/z 945.5→637.3 and 637.3→475.3 for G-Re, m/z 799.5→637.3 and 637.3→475.3 for IS. After oral administration, non-compartment approaches could be utilized [NT]-Re's t pharmacokinetic parameters. The part under the plasma concentration-time curve increasing from 0 to infinity (AUC0→∞) could be computed by the equation AUC0→∞ = AUCt + Ct/k. In this equation, Ct could be seen as the last concentration which could be quantized, and the calculation of k could be conducted by a straight-line's slope in plasma disappearance's terminal phase. […] Furthermore, with the help of linear trapezoidal approximation, it was easy to calculate the area below the plasma concentration-time curve increasing from 0 to the time of the last quantifiable concentration (AUCt). The calculation of bioavailability value for G-Re's oral doses needed to be conducted according to the AUC's dose-adjusted ratio. […]

[4] = Phase solubility study of G-Re with CDs in water; assay type: physicochemical; conditions: for △G: Gibbs free energy change of complexation with G-Re, ΔG = −RTln Ks; for Ks: apparent stability constant of G-Re with the CD, Ks=slope/S0(1-slope); for Ks / 1/Slope / Slope: water, 25 °C; for 1/Slope: phase solubility of G-Re; for Slope: slope of phase solubility curve of G-Re vs CD concentration; for stability constant Ks: G-Re with the CD, 1:1 stoichiometry
Procedure: Phase solubility studies were performed in water in accordance with the method formerly stated by Higuchi and Connors. In brief, an excess amount of G-Re was supplemented into 10 mL Eppendorf tubes with aqueous solution, including various concentrations of α-CD, β-CD, and γ-CD, respectively. Suspensions were vigorously shaken in 25 °C water bath for a week. After equilibrium was reached, the solutions were centrifuged for 5 min at 4000 rpm (1500 g). Meanwhile, a 0.22 μm membrane was used to further filter the supernatant. The filtrate was diluted and HPLC was employed to determine G-Re content.
The phase solubility curves were obtained with the regression of the concentrations of cyclodextrin (mol L^−1) as X-axis and the concentration of G-Re (mol L^−1) as Y-axis. The value of apparent stability constant (Ks) was defined by using the straight-line portion in the phase-solubility to the equation as follows: Ks=slope/S0(1-slope)
In this formula, R can be seen as the general gas constant, which equaled 8.314 J/mol K, and T can be considered as the experimental operating temperature.
as §1

[5] = male, Sprague-Dawley, rat, plasma, n = 6

Question: For `CC(C)=CCC[C@](C)(O[C@@H]1O[C@H](CO)[C@@H](O)[C@H](O)[C@H]1O)[C@H]1CC[C@]2(C)[C@@H]1[C@H](O)C[C@@H]1[C@@]3(C)CC[C@H](O)C(C)(C)[C@@H]3[C@@H](O[C@@H]3O[C@H](CO)[C@@H](O)[C@H](O)[C@H]3O[C@@H]3O[C@@H](C)[C@H](O)[C@@H](O)[C@H]3O)C[C@]12C` [G-Re, Ginsenoside Re], which dissolution rate [1] is on record?
Answer: Its dissolution rate is 6.73%.

Question: And the bioavailability [2]?
Answer: Its bioavailability is “low”.

Question: And the tmax [2]?
Answer: Its tmax is “short”.

Question: And the AUC(0-inf) [3, 5]?
Answer: The AUC(0-inf) was 130 ± 54.1 ng·h/mL.

Question: What about the Cmax [3, 5] of the same molecule?
Answer: Its Cmax is 32.2 ± 8.15 ng/mL.

Question: What about the MRT [3, 5] of the same molecule?
Answer: The MRT was 5.15 ± 0.968 h.

Question: What about the half-life [3, 5] of the same molecule?
Answer: Its half-life is 12.2 ± 1.56 h.

Question: What about the tmax [3, 5] of the same molecule?
Answer: Its tmax is 1.02 ± 0.036 h.

Question: What about the AUC(0-t) ([3]; male, Sprague-Dawley, rat, plasma, n = 6, called AUC0–t, read-out: AUC0–24h) of the same molecule?
Answer: Its AUC(0-t) is 113 ± 44.6 ng·h/mL.

Question: And the CLt ([3]; n = 6)?
Answer: Its CLt is 2.401 ± 0.52 L/h.

Question: And the Vdss ([3]; n = 6)?
Answer: The Vdss was 13.691 ± 3.74 L/kg.

Question: Which results are given for `OC[C@H]1O[C@@H]2O[C@H]3[C@H](O)[C@@H](O)[C@@H](O[C@H]4[C@H](O)[C@@H](O)[C@@H](O[C@H]5[C@H](O)[C@@H](O)[C@@H](O[C@H]6[C@H](O)[C@@H](O)[C@@H](O[C@H]7[C@H](O)[C@@H](O)[C@@H](O[C@H]8[C@H](O)[C@@H](O)[C@@H](O[C@H]9[C@H](O)[C@@H](O)[C@@H](O[C@H]1[C@H](O)[C@H]2O)O[C@@H]9CO)O[C@@H]8CO)O[C@@H]7CO)O[C@@H]6CO)O[C@@H]5CO)O[C@@H]4CO)O[C@@H]3CO` [γ-CD]?
Answer: inclusion constant relative to that of α-CD ([4]; G-Re as guest): 655 times; △G [4]: -5.673 kcal/mol; Ks [4]: 14410 M⁻¹; 1/Slope [4]: 1.18; Slope [4]: 0.8494

Question: For `OC[C@H]1O[C@@H]2O[C@H]3[C@H](O)[C@@H](O)[C@@H](O[C@H]4[C@H](O)[C@@H](O)[C@@H](O[C@H]5[C@H](O)[C@@H](O)[C@@H](O[C@H]6[C@H](O)[C@@H](O)[C@@H](O[C@H]7[C@H](O)[C@@H](O)[C@@H](O[C@H]8[C@H](O)[C@@H](O)[C@@H](O[C@H]1[C@H](O)[C@H]2O)O[C@@H]8CO)O[C@@H]7CO)O[C@@H]6CO)O[C@@H]5CO)O[C@@H]4CO)O[C@@H]3CO` [β-CD], which “stability constant Ks” value [4] is on record?
Answer: The value was 612 M⁻¹.

Question: What about the “△G” value [4] of the same molecule?
Answer: Its value is -3.7976 kcal/mol.

Question: And the Ks [4]?
Answer: Its Ks is 612 M⁻¹.

Question: And the 1/Slope [4]?
Answer: The 1/Slope was 5.16.

Question: And the Slope [4]?
Answer: Its Slope is 0.1935.

Question: With `OC[C@H]1O[C@@H]2O[C@H]3[C@H](O)[C@@H](O)[C@@H](O[C@H]4[C@H](O)[C@@H](O)[C@@H](O[C@H]5[C@H](O)[C@@H](O)[C@@H](O[C@H]6[C@H](O)[C@@H](O)[C@@H](O[C@H]7[C@H](O)[C@@H](O)[C@@H](O[C@H]1[C@H](O)[C@H]2O)O[C@@H]7CO)O[C@@H]6CO)O[C@@H]5CO)O[C@@H]4CO)O[C@@H]3CO` [α-CD] as the molecule, how does the “stability constant Ks” value [4] read?
Answer: The value was 22 M⁻¹.

Question: What about the “△G” value [4] of the same molecule?
Answer: The value was -1.831 kcal/mol.

Question: And the Ks [4]?
Answer: Its Ks is 22 M⁻¹.

Question: And the 1/Slope [4]?
Answer: Its 1/Slope is 116.28.

Question: And the Slope [4]?
Answer: Its Slope is 0.0086.
